Reference: patent US12043613B2, “Inhibitors of SARM1” (Disarm Therapeutics, Inc., priority 2020, dated 2024)

Molecular target: T1, SARM1 (ARM-SAM-TIR, full length SARM1) (Homo sapiens, UniProt Q6SZW1)
T1 sequence (Q6SZW1 with tags, fused parts or gaps): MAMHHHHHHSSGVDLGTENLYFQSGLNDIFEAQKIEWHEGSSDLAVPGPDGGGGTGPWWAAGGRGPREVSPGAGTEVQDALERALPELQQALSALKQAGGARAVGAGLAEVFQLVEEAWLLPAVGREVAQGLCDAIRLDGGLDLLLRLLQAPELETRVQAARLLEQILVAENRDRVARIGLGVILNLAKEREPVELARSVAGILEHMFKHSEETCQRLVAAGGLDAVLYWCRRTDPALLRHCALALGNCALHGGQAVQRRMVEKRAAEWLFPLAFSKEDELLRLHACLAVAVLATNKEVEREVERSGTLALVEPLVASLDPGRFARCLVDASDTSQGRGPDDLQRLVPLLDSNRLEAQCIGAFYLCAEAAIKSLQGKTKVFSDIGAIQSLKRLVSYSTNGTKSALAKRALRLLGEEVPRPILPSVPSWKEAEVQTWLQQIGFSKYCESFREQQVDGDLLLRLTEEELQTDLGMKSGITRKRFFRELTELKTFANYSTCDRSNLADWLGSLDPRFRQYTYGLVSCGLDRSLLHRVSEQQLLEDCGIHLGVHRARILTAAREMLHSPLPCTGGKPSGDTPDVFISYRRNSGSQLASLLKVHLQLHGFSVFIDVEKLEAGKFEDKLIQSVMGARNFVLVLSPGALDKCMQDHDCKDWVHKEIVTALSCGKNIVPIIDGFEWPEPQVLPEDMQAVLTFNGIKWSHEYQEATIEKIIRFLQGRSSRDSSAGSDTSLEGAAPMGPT
Assay: biochemical
Details: SARM1 IC50 (nM), ARM-SAM-TIR lysate 5 μg/mL from NRK1-HEK293T cells, 2 h pre-incubation, 5 uM NAD+, 2 hr room temperature

Structure (SMILES)	IC50 [nM]
O=C1C(Cc2ccc(F)nc2)CCN1c1nnc(-c2ccncc2)[nH]1 (single isomer, unassigned) [I-39* (peak 1)]	101 to 500
Cc1c(-c2ccncc2)n[nH]c1N1CCC(Cc2cnc(Cl)c(F)c2)C1=O (single isomer, unassigned) [I-41* (peak 1)]	101 to 500
O=C1C(Cc2ccc(Cl)cc2)OCCN1c1cc(-c2ccncc2)n[nH]1 (single isomer, unassigned) [I-47* (peak 1)]	51 to 100
O=C1C(Cc2ccc(Cl)cc2)OCCN1c1cc(-c2ccncc2)n[nH]1 (single isomer, unassigned) [I-47* (peak 2)]	> 1000
Cc1c(-c2ccncc2)n[nH]c1N1CCC(Cc2ccc(Cl)nc2)C1=O (single isomer, unassigned) [I-48* (peak 1)]	101 to 500
Cc1c(-c2ccncc2)n[nH]c1N1CCC(Cc2ccc(F)c(F)c2)C1=O (single isomer, unassigned) [I-49* (peak 2)]	51 to 100
CC1(Cc2ccc(Cl)cc2)CCCN(c2nc(-c3ccncc3)n[nH]2)C1=O (single isomer, unassigned) [I-54* (peak 2)]	101 to 500
O=C1C(Cc2ccc(Cl)nc2)CCCN1c1nnc(-c2ccncc2)[nH]1 (single isomer, unassigned) [I-55* (peak 1)]	51 to 100
O=C1C(Cc2cnc(Cl)c(F)c2)CCCN1c1cc(-c2ccncc2)n[nH]1 (single isomer, unassigned) [I-66* (peak 1)]	< 50
O=C1C(Cc2cnc(Cl)c(F)c2)CCCN1c1cc(-c2ccncc2)n[nH]1 (single isomer, unassigned) [I-66* (peak 2)]	101 to 500
O=C1C(Cc2ccc(F)nc2)CCN1c1cc(-c2ccncc2)n[nH]1 (single isomer, unassigned) [I-67* (peak 1)]	51 to 100
O=C1C(Cc2ccc(F)nc2)CCN1c1cc(-c2ccncc2)n[nH]1 (single isomer, unassigned) [I-67* (peak 2)]	< 50
[2H]C([2H])(c1ccc(Cl)nc1)C1([2H])C(=O)N(c2cc(-c3ccncc3)n[nH]2)C([2H])([2H])C([2H])([2H])C1([2H])[2H] (single isomer, unassigned) [I-79* (peak 2)]	101 to 500

The next lines start with the values.

IC50 [nM]	Structure (SMILES)
501 to 1000	O=C1C(Cc2ccc(Cl)cc2)CNCCN1c1nc(-c2ccncc2)n[nH]1 (single isomer, unassigned) [I-38* (peak 1)]
> 1000	O=C1C(Cc2ccc(Cl)cc2)CNCCN1c1nc(-c2ccncc2)n[nH]1 (single isomer, unassigned) [I-38* (peak 2)]
> 1000	O=C1C(Cc2ccc(Cl)nc2)CCCCN1c1cc(-c2ccncc2)n[nH]1 (single isomer, unassigned) [I-40* (peak 1)]
101 to 500	O=C1C(Cc2ccc(Cl)nc2)CCCCN1c1cc(-c2ccncc2)n[nH]1 (single isomer, unassigned) [I-40* (peak 2)]
> 1000	O=C1N(c2nc(-c3ccncc3)n[nH]2)CCC1(F)Cc1ccc(Cl)nc1 (single isomer, unassigned) [I-42* (peak 1)]
101 to 500	Cc1c(-c2ccncc2)n[nH]c1N1CCC(Cc2ccc(F)c(F)c2)C1=O (single isomer, unassigned) [I-49* (peak 1)]
501 to 1000	CC1(Cc2ccc(Cl)cc2)CCCN(c2nc(-c3ccncc3)n[nH]2)C1=O (single isomer, unassigned) [I-54* (peak 1)]
> 1000	N[C@H]1CC(Cc2ccc(Cl)nc2)C(=O)N(c2cc(-c3ccncc3)n[nH]2)C1 (single isomer, unassigned) [I-60* (peak 1)]
101 to 500	N[C@H]1CC(Cc2ccc(Cl)nc2)C(=O)N(c2cc(-c3ccncc3)n[nH]2)C1 (single isomer, unassigned) [I-60* (peak 2)]
< 50	O=C1C(Cc2cnc(Cl)c(F)c2)CCN1c1cc(-c2ccncc2)n[nH]1 (single isomer, unassigned) [I-65* (peak 1)]
< 50	[2H]C([2H])(c1ccc(Cl)nc1)C1([2H])C(=O)N(c2cc(-c3ccncc3)n[nH]2)C([2H])([2H])C([2H])([2H])C1([2H])[2H] (single isomer, unassigned) [I-79* (peak 1)]
